Test results published in US20200163984A1, “USE OF ISOVALERYL SPIRAMYCIN I, II AND/OR III IN MANUFACTURING MEDICAMENT FOR TREATING AND/OR PREVENTING TUMOR, AND MEDICAMENT” (SHENYANG FUYANG PHARMACEUTICAL TECHNOLOGY CO., LTD., priority 2017, published 2020).
Converted amounts (≈) assume the structure as drawn.

Experiments:
[1] = tested on: transplanted tumor of mouse H22 liver cancer; assay: Transplanted tumor of mouse H22 liver cancer; details: for growth of H22 liver cancer in mice: 13, 26 and 52 mg/kg i.g. 7 days; for Tumor Volume (mm3) (d30): d 30; for Body Weight (g) (d1) / Body Weight (g) (d 7): mouse, in vivo
Protocol: The H22 cell strains cryopreserved in liquid nitrogen were resuscitated in Kunming mice. After 3 generations, the ascites of Kunming mice were taken and placed in a 50 ml centrifuge tube in which 10 ml of 0.9% normal saline was added, and then centrifuging was performed at 1000 rpm for 5 min at room temperature, and the obtained supernatant was removed. Then 10 ml of 0.9% normal saline was added to the tube to blow and mix well, and then the mixture was diluted to 5×10^6 live cells/ml with normal saline after counting. The tube was stored in ice water, and 75% ethanol was used to disinfect the skin under the right armpits of the mice. Each Kunming mouse was soon inoculated subcutaneously with 0.2 ml of the cells at the armpit of the right forelimb.
In the H22 liver cancer model, the mice inoculated with the tumor were randomly divided into groups with 10 mice in each group on the next day of inoculation. The groups included: a model control group, a positive drug cyclophosphamide control group (CTX, 26 mg/kg), isovaleryl spiramycin I groups with doses of 13, 26 and 52 mg/kg; isovaleryl spiramycin II groups with doses of 13, 26 and 52 mg/kg; isovaleryl spiramycin III groups with doses of 13, 26 and 52 mg/kg. Each group was continuously administered intragastrically for 7 days with a dose of 20 ml/kg.
The tumor-bearing mice were weighed and sacrificed the next day after the last administration. The subcutaneous tumors were dissected and weighed. The average tumor weight of each group is calculated, and the tumor inhibition rate is calculated.
Tumor inhibition rate=(1−T/C)×100%
T: average tumor weight of the drug-administered group; C: average tumor weight of the blank control group.

[2] = tested on: transplanted tumor of human prostate cancer cell PC3; assay: PC3 transplanted tumor in nude mice; details: for Inhibition Rate (tumor growth inhibition rate) / Relative Tumor Proliferation Rate (T/C) / Relative Tumor Volume (RTV) / Tumor Volume (d 1) / Tumor Volume (d 30) / Tumor Weight / tumor volume and relative tumor volume compared with the model group: PC3; for tumor volume and relative tumor volume compared with the model group: low, medium and high doses, P<0.05; for mouse weight compared with the model group: in vivo
Protocol: Then cell concentration was adjusted to 1×10^7/ml with matrigel, then each nude mouse was inoculated subcutaneously with 0.2 ml of cells at its right armpit and recorded as the first day of inoculation. When the tumor grows to be greater than or equal to 100 mm^3, the mice were randomly divided into 11 groups with 6 mice in each group: a model group, a cyclophosphamide group, isovaleryl spiramycin I groups with doses of 25, 50 and 100 mg/kg, isovaleryl spiramycin II groups with doses of 25, 50 and 100 mg/kg, and isovaleryl spiramycin III groups with doses of 25, 50 and 100 mg/kg. Each group was continuously administered intragastrically for 30 days with a dose of 20 ml/kg. The mice were sacrificed the next day after drug withdrawal and the indicators were tested. The long diameter and short diameter of the tumor, and the body weight of each mouse were recorded every 3 days from drug administration to nude mouse sacrifice.
The body weight of the nude mice and the long diameter (a) and short diameter (b) of the transplanted tumor were measured every 3 days, and the tumor volume (v), relative tumor volume (RTV) and relative tumor proliferation rate (T/C) are calculated respectively according to the following formulas, wherein V=a×b^2/2; RTV=V/V0 (V0 is the tumor volume before administration, V is the tumor volume before sacrifice), and T/C (%)=treatment group RTV/model control group RTV×100%.
Each mouse was weighed and sacrificed. After the tumor was completely stripped off from the body of the mouse, the non-tumor tissues such as blood stains and fat were removed to weigh the tumor and calculate the tumor growth inhibition rate. The average tumor weight of each group of mice is used as an indicator of efficacy. Tumor growth inhibition rate (%)=(1−the average tumor weight of the treatment group/the average tumor weight of the model group)×100%.

[3] = tested on: human promyelocytic leukemia cell HL-60; details: HL-60, MTT, 48 h
Protocol: (§1) The purpose of the assay is to evaluate the in vitro cell proliferation inhibition or cytotoxic activity of a tested sample.
(§2) U937 and HL-60 were suspension cells, and cells in a logarithmic growth phase were selected and prepared into a 2×10^5/ml cell suspension by a RPMI 1640 culture medium containing 10% fetal bovine serum. And the cell suspension was inoculated in a 96-well culture plate, and each well was 50 μL and the 96-well culture plate was cultured at 37° C. and 5% CO2 for 24 hours. 50 μL of a culture medium containing different concentrations of the tested sample isovaleryl spiramycin I, isovaleryl spiramycin II, or isovaleryl spiramycin III was added in the experimental group, while a culture medium containing the same volume of solvent was added into the control group. Each group was set up with 3 parallel wells that were cultured at 37° C. and 5% CO2 for 48 h. And 10 μL of freshly prepared medium containing 5 mg/ml MTT was added into each well for continuous incubation for 4 hours at 37° C. The crystals were dissolved in 100 μL of a triple solution (SDS 10 g, 10 M HCl 0.1 mL, isobutanol 5 mL, diluted with distilled water to 100 mL), and incubated at 37° C. for 12 hours. The optical density value was measured at 492 nm with a microplate reader.
(§3) The inhibition rate of the medicament on tumor cell growth is calculated according to the following formula:
(§4) Tumor cell growth inhibition rate (%)=[A492 (negative control)−A492 (dosing group)]/A492 (negative control)×100%
(§5) And the half-inhibitory concentration (IC50) of the sample is determined therefrom.

[4] = tested on: human tissue lymphoma cell U937; details: U937, MTT, 48 h
Protocol: as §1, §2, §3, §4, §5

[5] = 25 mg/kg (low dose) i.g. 30 days
[6] = 50 mg/kg (medium dose) i.g. 30 days
[7] = 100 mg/kg (high dose) i.g. 30 days

## CO[C@@H]1[C@@H](O[C@@H]2O[C@H](C)[C@@H](O[C@H]3C[C@@](C)(O)[C@@H](OC(=O)CC(C)C)[C@H](C)O3)[C@H](N(C)C)[C@H]2O)[C@@H](CC=O)C[C@@H](C)[C@@H](O[C@H]2CC[C@H](N(C)C)[C@@H](C)O2)/C=C/C=C/C[C@@H](C)OC(=O)C[C@H]1O [Isovaleryl spiramycin I, isovaleryl spiramycin I]
[1]
  growth of H22 liver cancer in mice: significantly inhibit
[1]; dose 12.5 mg/kg
  Relative Tumor Proliferation Rate (T/C): 54.47
  Relative Tumor Volume (RTV): 5.41 ± 1.42
  Tumor Volume (mm3) (d 1): 120.26 ± 24.42 mm3
  Tumor Volume (mm3) (d30): 657.57 ± 231.56 mm3
[1]; dose 13 mg/kg
  Inhibition Rate (%): 42.11%
  Tumor: 0.88 ± 0.38 g
[1]; dose 25 mg/kg
  Relative Tumor Proliferation Rate (T/C): 48.27
  Relative Tumor Volume (RTV): 4.79 ± 0.64
  Tumor Volume (mm3) (d 1): 118.32 ± 11.90 mm3
  Tumor Volume (mm3) (d30): 563.69 ± 463.08 mm3
[1]; dose 26 mg/kg
  Inhibition Rate (%): 55.26%
  Tumor: 0.68 ± 0.24 g
[1]; dose 50 mg/kg
  Relative Tumor Proliferation Rate (T/C): 29.78
  Relative Tumor Volume (RTV): 2.96 ± 0.39
  Tumor Volume (mm3) (d 1): 120.68 ± 13.76 mm3
  Tumor Volume (mm3) (d30): 359.74 ± 480.81 mm3
[1]; dose 52 mg/kg
  Inhibition Rate (%): 65.79%
  Tumor: 0.52 ± 0.68 g
[1]; 13 mg/kg
  Body Weight (g) (d1): 24.55 ± 1.00 g
  Body Weight (g) (d 7): 26.23 ± 0.79 g
[1]; 26 mg/kg
  Body Weight (g) (d1): 23.83 ± 2.36 g
  Body Weight (g) (d 7): 26.68 ± 1.85 g
[1]; 52 mg/kg
  Body Weight (g) (d1): 24.02 ± 2.83 g
  Body Weight (g) (d 7): 27.87 ± 1.57 g
[2]; [5]
  Inhibition Rate (tumor growth inhibition rate): 33.87%
  Relative Tumor Proliferation Rate (T/C): 70.43%
  Relative Tumor Volume (RTV): 13.78 ± 3.15
  Tumor Volume (d 1): 127.59 ± 6.73 mm3
  Tumor Volume (d 30): 1758.15 ± 412.68 mm3
  Tumor Weight: 1.24 ± 0.51 g
[2]; [6]
  Inhibition Rate (tumor growth inhibition rate): 51.33%
  Relative Tumor Proliferation Rate (T/C): 49.14%
  Relative Tumor Volume (RTV): 9.61 ± 3.15
  Tumor Volume (d 1): 186.59 ± 39.40 mm3
  Tumor Volume (d 30): 1706.14 ± 347.50 mm3
  Tumor Weight: 0.91 ± 0.33 g
[2]; [7]
  Inhibition Rate (tumor growth inhibition rate): 71.01%
  Relative Tumor Proliferation Rate (T/C): 30.72%
  Relative Tumor Volume (RTV): 6.01 ± 1.78
  Tumor Volume (d 1): 175.94 ± 12.32 mm3
  Tumor Volume (d 30): 1041.69 ± 247.71 mm3
  Tumor Weight: 0.55 ± 0.21 g
[2]
  tumor volume and relative tumor volume compared with the model group: significantly lower
  mouse weight compared with the model group: no significant changes
[3]
  IC50: 16.52 ± 1.26 µg/mL (≈ 17.8 µM)
[4]
  IC50: 10.88 ± 0.05 µg/mL (≈ 11.7 µM)

## COC1C(OC(C)=O)CC(=O)OC(C)CC=CC=CC(OC2CCC(N(C)C)C(C)O2)C(C)CC(CC=O)C1OC1OC(C)C(OC2CC(C)(O)C(OC(=O)CC(C)C)C(C)O2)C(N(C)C)C1O (stereo not shown) [Isovaleryl spiramycin II, isovaleryl spiramycin II]
[1]
  growth of H22 liver cancer in mice: significantly inhibit
[1]; dose 12.5 mg/kg
  Relative Tumor Proliferation Rate (T/C): 78.85
  Relative Tumor Volume (RTV): 7.83 ± 1.50
  Tumor Volume (mm3) (d 1): 120.80 ± 18.48 mm3
  Tumor Volume (mm3) (d30): 931.38 ± 141.51 mm3
[1]; dose 13 mg/kg
  Inhibition Rate (%): 19.74%
  Tumor: 1.22 ± 0.31 g
[1]; dose 25 mg/kg
  Relative Tumor Proliferation Rate (T/C): 66.04
  Relative Tumor Volume (RTV): 6.56 ± 2.19
  Tumor Volume (mm3) (d 1): 118.02 ± 10.35 mm3
  Tumor Volume (mm3) (d30): 779.30 ± 292.34 mm3
[1]; dose 26 mg/kg
  Inhibition Rate (%): 30.26%
  Tumor: 1.06 ± 0.33 g
[1]; dose 50 mg/kg
  Relative Tumor Proliferation Rate (T/C): 56.20
  Relative Tumor Volume (RTV): 5.58 ± 0.95
  Tumor Volume (mm3) (d 1): 118.18 ± 14.68 mm3
  Tumor Volume (mm3) (d30): 659.02 ± 138.35 mm3
[1]; dose 52 mg/kg
  Inhibition Rate (%): 45.39%
  Tumor: 0.83 ± 0.46 g
[1]; 13 mg/kg
  Body Weight (g) (d1): 24.22 ± 2.15 g
  Body Weight (g) (d 7): 27.27 ± 2.20 g
[1]; 26 mg/kg
  Body Weight (g) (d1): 24.72 ± 1.69 g
  Body Weight (g) (d 7): 27.35 ± 0.80 g
[1]; 52 mg/kg
  Body Weight (g) (d1): 23.45 ± 1.69 g
  Body Weight (g) (d 7): 27.02 ± 0.90 g
[2]; [5]
  Inhibition Rate (tumor growth inhibition rate): 23.49%
  Relative Tumor Proliferation Rate (T/C): 83.04%
  Relative Tumor Volume (RTV): 16.24 ± 6.00
  Tumor Volume (d 1): 154.86 ± 4.11 mm3
  Tumor Volume (d 30): 2404.85 ± 672.33 mm3
  Tumor Weight: 1.44 ± 0.56 g
[2]; [6]
  Inhibition Rate (tumor growth inhibition rate): 40.16%
  Relative Tumor Proliferation Rate (T/C): 60.08%
  Relative Tumor Volume (RTV): 11.75 ± 3.78
  Tumor Volume (d 1): 157.25 ± 38.97 mm3
  Tumor Volume (d 30): 1729.14 ± 128.57 mm3
  Tumor Weight: 1.13 ± 0.43 g
[2]; [7]
  Inhibition Rate (tumor growth inhibition rate): 50.44%
  Relative Tumor Proliferation Rate (T/C): 44.48%
  Relative Tumor Volume (RTV): 8.70 ± 2.61
  Tumor Volume (d 1): 131.11 ± 22.05 mm3
  Tumor Volume (d 30): 1162.46 ± 495.46 mm3
  Tumor Weight: 0.93 ± 0.27 g
[2]
  tumor volume and relative tumor volume compared with the model group: significantly lower
  mouse weight compared with the model group: no significant changes
[3]
  IC50: 29.39 ± 1.82 µg/mL (≈ 30.3 µM)
[4]
  IC50: 34.92 ± 0.81 µg/mL (≈ 36 µM)
